Data reported in US20230248626A1, “Compositions Comprising (Bio)-Alkanediols” (Symrise AG, priority 0001, published 2023).

Assays:
Format in all cases: cell-based
Aspergillus brasiliensis = experiment: MIC and Kull synergy index of 1,2-/2,3-alkanediol mixtures; conditions: single 2,3-alkanediol, read-out: MIC Component B
[1] = tested on: Pseudomonas aeruginosa (PA); experiment: Preservation efficacy test (PET), European Pharmacopoeia 5.1.3
Procedure, shortened: (§1)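 Preparations challenged with prescribed inoculums per European Pharmacopoeia 5.1.3, counting microorganisms after the prescribed time. Adequate preservation means a significant fall or no increase in counts.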

Escherichia coli (EC) = experiment: as above
Procedure, shortened: as §1

[2] = tested on: Staphylococcus aureus (SA); experiment: as above
Procedure, shortened: as §1

[3] = tested on: reactive oxygen species (ROS) on ex vivo skin; experiment: DCF assay, ROS score on ex vivo skin, aqueous/alcoholic (ethanolic) test system; conditions: vehicle (EtOH/H2O) plus alkanediol only
Description: A dichlorofluorescein test (DCF) assay was performed in order to determine the amount of reactive oxygen species (ROS) on ex vivo skin treated with different test samples in a lipophilic or an aqueous/alcoholic system as described below.
DCF assay—assay principle: Ex vivo skin was incubated with 2′,7′-dichlorodihydrofluorescein diacetate at 37° C., 5% CO2. After PBS washing, samples were exposed or not to cumene hydroperoxide. Immediately after exposure, ex vivo skin samples were frozen in liquid nitrogen and 5 μm cryostat sections were made and fixed with acetone to allow the visualisation of fluorescence generated by ROS in cells of the reconstructed skins. The resulting fluorescence was measured at EX/EM 504/524 nm. Green fluorescence was quantified in ex vivo skin using ImageJ software. The depth of immunostaining was measured as follows: green DCFH-DE positive cells were automatically detected using Histolab software and the distance between dermal epidermal junction and the deepest positive cells were measured in each condition. Means were compared using a student's test. […]
The image acquisition was performed by using Olympus BX51 microscope and Olympus DP70 camera. For each skin sample two skin sections have been taken and the related fluorescent images acquired and analyzed. Thus, for each test condition, 12 images have been acquired and analyzed (i.e. 12 data). […]

human sebaceous glands = experiment: Sebum production of micro-dissected, cultured human sebaceous glands (lipids/proteins after six days); set-up: sebum reduction: concentration or dose not given beside the values; conditions: compared to untreated control; six days; single donor (FIG. 4)
Procedure, shortened: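 Micro-dissected human sebaceous glands cultured six days in medium with alkanediols at various concentrations; plain medium as untreated control, 5 μM Capsaicin as positive control. Lipids and proteins then quantified; sebum production expressed as mg lipids/mg proteins.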

## CCCCC(O)C(C)O (stereo not drawn) [2,3-heptanediol]
Aspergillus brasiliensis
  MIC: 7500 µg/mL
[1]; 0.1% in shampoo
  number of microorganisms after 2 days: 230,000
  number of microorganisms after 7 days: 730,000
  number of microorganisms after 14 days: 3,500,000
  number of microorganisms after 28 days: 7,000,000
[1]; 0.2% in o/w emulsion
  number of microorganisms after 2 days: 1
  number of microorganisms after 7 days: 1
  number of microorganisms after 14 days: 1
  number of microorganisms after 28 days: 1
[1]; 0.4% in o/w emulsion
  number of microorganisms after 2 days: 1
  number of microorganisms after 7 days: 1
  number of microorganisms after 14 days: 1
  number of microorganisms after 28 days: 1
[1]; 0.4% in shampoo
  number of microorganisms after 2 days: 2,900
  number of microorganisms after 7 days: 1
  number of microorganisms after 14 days: 1
  number of microorganisms after 28 days: 1
Escherichia coli (EC); 0.1% in shampoo
  number of microorganisms after 2 days: 1,100,000
  number of microorganisms after 7 days: 1,500,000
  number of microorganisms after 14 days: 1,600,000
  number of microorganisms after 28 days: 1,400,000
Escherichia coli (EC); 0.2% in o/w emulsion
  number of microorganisms after 2 days: 170,000
  number of microorganisms after 7 days: 1,600
  number of microorganisms after 14 days: 82
  number of microorganisms after 28 days: 1
Escherichia coli (EC); 0.4% in o/w emulsion
  number of microorganisms after 2 days: 320,000
  number of microorganisms after 7 days: 2,400
  number of microorganisms after 14 days: 1
  number of microorganisms after 28 days: 1
Escherichia coli (EC); 0.4% in shampoo
  number of microorganisms after 2 days: 1,200,000
  number of microorganisms after 7 days: 100,000
  number of microorganisms after 14 days: 75,000
  number of microorganisms after 28 days: 380,000
[2]; 0.1% in shampoo
  number of microorganisms after 2 days: 27,000
  number of microorganisms after 7 days: 490
  number of microorganisms after 14 days: 1
  number of microorganisms after 28 days: 1
[2]; 0.2% in o/w emulsion
  number of microorganisms after 2 days: 1,300,000
  number of microorganisms after 7 days: 790,000
  number of microorganisms after 14 days: 55
  number of microorganisms after 28 days: 1
[2]; 0.4% in o/w emulsion
  number of microorganisms after 2 days: 1,000,000
  number of microorganisms after 7 days: 12,000
  number of microorganisms after 14 days: 1
  number of microorganisms after 28 days: 1
[2]; 0.4% in shampoo
  number of microorganisms after 2 days: 3,500
  number of microorganisms after 7 days: 1
  number of microorganisms after 14 days: 1
  number of microorganisms after 28 days: 1
[3]
  antioxidative efficacy without antioxidant (in words): do not have an antioxidative efficacy
Human sebaceous glands
  sebum reduction: 30%
